Assay results reported in patent US20050137220A1 (Pharmacia Corporation, priority 2003, published 2005).
Several values for one entry are separate records, joined by “and”; a condition that tells them apart may be missing. Identical values can stand only once. Counter-ions that a name gives are not always drawn.

Biological target: MK-2 (Homo sapiens, UniProt P49137)
Assay: Determination of MK-2 IC50 (phosphorylation of HSP-peptide, anion exchange resin capture assay)
Type: biochemical
Conditions: additional values are replicate IC50 experiments; mixture of stereoisomers implied unless otherwise noted; read-out: MK-2 Avg. IC50

Chain of MK-2 (P49137 whole entry, species assumed): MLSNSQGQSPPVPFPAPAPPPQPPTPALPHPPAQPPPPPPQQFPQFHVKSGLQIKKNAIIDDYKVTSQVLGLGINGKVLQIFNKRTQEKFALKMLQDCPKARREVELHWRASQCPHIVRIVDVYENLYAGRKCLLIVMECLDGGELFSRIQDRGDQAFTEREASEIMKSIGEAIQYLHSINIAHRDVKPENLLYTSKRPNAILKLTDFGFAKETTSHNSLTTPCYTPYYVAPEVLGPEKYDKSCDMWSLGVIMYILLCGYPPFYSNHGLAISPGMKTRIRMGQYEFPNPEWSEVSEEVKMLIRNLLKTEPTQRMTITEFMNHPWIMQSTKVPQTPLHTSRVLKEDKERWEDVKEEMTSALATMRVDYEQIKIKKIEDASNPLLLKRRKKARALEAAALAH

| IC50 | SMILES |
| --- | --- |
| > 200 µM | COc1ccc2[nH]c3c(c2c1)CCN(C(=O)OCc1ccccc1)C3C(=O)O (stereo not drawn) [Example 219, 2-[(benzyloxy)carbonyl]-6-methoxy-2,3,4,9-tetrahydro-1H-beta-carboline-1-carboxylic acid] |
| 89.6 µM | O=C1NCCc2c1[nH]c1ccc(Cl)cc21 [Example 125, 1H-Pyrido[3,4-b]indol-1-one, 6-chloro-2,3,4,9-tetrahydro- or 6-chloro-2,3,4,9-tetrahydro-1H-beta-carbolin-1-one] |
| 71.9 µM | COC(=O)c1ccc(COc2ccc3[nH]c4c(c3c2)CCNC4C(=O)O)cc1 (stereo not drawn) [Example 119, 6-{[4-(methoxycarbonyl)benzyl]oxy}-2,3,4,9-tetrahydro-1H-beta-carboline-1-carboxylic acid hydrochloride] |
| 4.83 µM and 4.96 µM | CN1CCc2c([nH]c3ccc(OCc4ccccc4)cc23)C1C(=O)O (stereo not drawn) [Example 36, sodium 6-(benzyloxy)-2-methyl-2,3,4,9-tetrahydro-1H-beta-carboline-1-carboxylate] |
| > 200 µM | COC(=O)C1c2[nH]c3ccc(OC)cc3c2CCN1C(=O)C(F)(F)F (stereo not drawn) [Example 207, methyl 6-methoxy-2-(trifluoroacetyl)-2,3,4,9-tetrahydro-1H-beta-carboline-1-carboxylate] |
| > 200 µM | COc1ccc2[nH]c3c(c2c1)C1(CCCCC1)CNC3C(=O)O (stereo not shown) [Example 186, 2′,3′,4′,9′-tetrahydro-6′-methoxy-spiro[cyclohexane-1,4′-[4H]pyrido[3,4-b]indole]-1-carboxylic acid] |
| 82.9 µM and 88.1 µM | Cc1ccc2[nH]c3c(c2c1)CCC/C3=N\O [Example 123, 6-methyl-2,3,4,9-tetrahydro-1H-carbazol-1-one oxime] |
| 119 µM | COc1ccc2[nH]c3c(c2c1)CCN(Cc1ccc(C(F)(F)F)cc1)C3C(=O)O (stereo not drawn) [Example 141, 6-methoxy-2-[4-(trifluoromethyl)benzyl]-2,3,4,9-tetrahydro-1H-beta-carboline-1-carboxylic acid] |
| > 200 µM | CCOC(=O)C1Cc2c([nH]c3ccc(OC)cc23)C(C(=O)O)N1 (stereo not drawn) [Example 177, 3-(ethoxycarbonyl)-6-methoxy-2,3,4,9-tetrahydro-1H-beta-carboline-1-carboxylic acid] |
| > 200 µM | CCOc1cc([N+](=O)[O-])c2[nH]c3c(c2c1)CCNC3=O [Example 255, 6-ethoxy-8-nitro-2,3,4,9-tetrahydro-1H-beta-carbolin-1-one] |
| 35.5 µM | O=C(O)COc1ccc2[nH]c3c(c2c1)CCNC3C(=O)O (stereo not drawn) [Example 98, 6-(carboxymethoxy)-2,3,4,9-tetrahydro-1H-beta-carbolin-1-carboxylic acid] |
| > 200 µM | CC(C)(C)OC(=O)N1CCN(C(=O)c2cccc3[nH]c4c(c23)CCNC4=O)CC1 [Example 267, tert-butyl 4-[(1-oxo-2,3,4,9-tetrahydro-1H-beta-carbolin-5-yl)carbonyl]piperazine-1-carboxylate] |
| 34.5 µM | CCOC(=O)c1cccc2c3c([nH]c12)CCNC3=O [Example 96, ethyl 1-oxo-2,3,4,5-tetrahydro-1H-pyrido[4,3-b]indole-6-carboxylate] |
| > 200 µM | COC(=O)CC1CC2(C(=O)OC)c3[nH]c4ccccc4c3CCN2C1=O (stereo not shown) [Example 213, 1h-Indolizino[8,7-B]Indole-2-Acetic Acid, 2,3,5,6,11,11b-(Methoxycarbonyl)-3-Oxo-, Methyl Ester] |
| > 200 µM | COC(=O)CC1NCCc2c1[nH]c1ccc(OC)cc21 (stereo not drawn) [Example 167, methyl(6-methoxy-2,3,4,9-tetrahydro-1H-beta-carbolin-1-yl)acetate] |
| 44.9 µM | CS(=O)(=O)c1ccc(COc2ccc3[nH]c4c(c3c2)CCNC4C(=O)O)cc1 (stereo not drawn) [Example 104, 6-{[4-(methylsulfonyl)benzyl]oxy}-2,3,4,9-tetrahydro-1H-beta-carboline-1-carboxylic acid hydrochloride] |
| > 200 µM | O=C(O)C1NCCc2c1[nH]c1ccc(OCc3ccccc3Cl)cc21 (stereo not drawn) [Example 196, 6-[(2-chlorobenzyl)oxy]-2,3,4,9-tetrahydro-1H-beta-carboline-1-carboxylic acid hydrochloride] |
| > 200 µM | O=C1NCCc2c1[nH]c1cccc(C(=O)O)c21 [Example 250, 1-oxo-2,3,4,9-tetrahydro-1H-beta-carboline-5-carboxylic acid] |
| 121 µM | COC(=O)c1cccc2[nH]c3c(c12)CCNC3C(=O)O (stereo not drawn) [Example 142, 5-(methoxycarbonyl)-2,3,4,9-tetrahydro-1H-beta-carboline-1-carboxylic acid hydrochloride hydrate] |
| > 200 µM | COC(=O)C1(Cc2ccc(Cl)cc2)c2[nH]c3ccc(O)cc3c2CCN1C (stereo not drawn) [Example 173, methyl 1-[4-chlorobenzyl)-6-hydroxy-2-methyl-2,3,4,9-tetrahydro-1H-beta-carboline-1-carboxylate] |
| 70.9 µM | COc1ccc2[nH]c3c(c2c1)C(Cc1cccc(C(F)(F)F)c1)CNC3C(=O)O (stereo not drawn) [Example 118, 6-methoxy-4-[3-(trifluoromethyl)benzyl]-2,3,4,9-tetrahydro-1H-beta-carboline-1-carboxylic acid] |

| IC50 | SMILES |
| --- | --- |
| > 200 µM | COC(=O)C1(C)NCCc2c1[nH]c1ccccc21 (stereo not drawn) [Example 235, methyl 1-methyl-2,3,4,9-tetrahydro-1H-beta-carboline-1-carboxylate] |
| 39.8 µM | COC(=O)c1cccc2c3c([nH]c12)CCCC3=O [Example 100, methyl 4-oxo-2,3,4,9-tetrahydro-1H-carbazole-8-carboxylate] |
| 100 µM | COc1cc2[nH]c3c(c2cc1OC)CCCC3=NO [Example 131, 6,7-dimethoxy-2,3,4,9-tetrahydro-1H-carbazol-1-one oxime] |
| > 200 µM | O=C(O)C1NCCc2c1[nH]c1c(OCc3ccccc3)cccc21 (stereo not drawn) [Example 194, 8-(benzyloxy)-2,3,4,9-tetrahydro-1H-beta-carboline-1-carboxylic acid] |
| > 200 µM | COC(=O)C1c2[nH]c3ccc(OC)cc3c2CCN1CCCO[Si](C)(C)C(C)(C)C (stereo not drawn) [Example 181, methyl 2-(3-{[tert-butyl(dimethyl)silyl]oxy}propyl)-6-methoxy-2,3,4,9-tetrahydro-1H-beta-carboline-1-carboxylate] |
| > 200 µM | COc1ccc2[nH]c3c(c2c1)CCN1CC(C)NC(=O)C31 (stereo not shown) [Example 206, 9-methoxy-3-methyl-3,4,6,7,12,12b-hexahydropyrazino[1′, 2′:1 , 2]pyrido[3,4-b]indol-1(2H)-one] |
| > 200 µM | COC(=O)C1Cc2c([nH]c3ccccc23)C(C(=O)O)N1 (stereo not drawn) [Example 227, 3-(methoxycarbonyl)-2,3,4,9-tetrahydro-1H-beta-carboline-1-carboxylic acid] |
| > 200 µM | COc1ccc2[nH]c3c(c2c1)C1CCCCC1NC3C(=O)O (stereo not shown) [Example 191, 10-methoxy-2,3,4,4a,5,6,7,11c-octahydro-1H-indolo[2,3-c]quinoline-6-carboxylic acid] |
| > 200 µM | COc1ccc2[nH]c3c(c2c1)CCNC3C(N)=O (stereo not drawn) [Example 220, 6-methoxy-2,3,4,9-tetrahydro-1H-beta-carboline-1-carboxamide] |
| > 200 µM | CN1C(=O)C(=O)c2c(n(C)c3ccccc23)C1=O [Example 263, 1H-Pyrido[3,4-b]indole-1,3,4(2H,9H)-trione, 2,9-dimethyl- or 2,9-dimethyl-1H-beta-carboline-1,3,4(2H,9H)-trione] |
| > 200 µM | CCCC1Cc2c([nH]c3ccc(OC)cc23)C(C(=O)O)N1 (stereo not drawn) [Example 190, 6-methoxy-3-propyl-2,3,4,9-tetrahydro-1H-beta-carboline-1-carboxylic acid] |
| > 200 µM | COc1ccc2c(c1)c1c(n2C)C(C(=O)O)NCC1 (stereo not drawn) [Example 182, 6-methoxy-9-methyl-2,3,4,9-tetrahydro-1H-beta-carboline-1-carboxylic acid] |
| > 200 µM | COC(=O)C1NC(CO)Cc2c1[nH]c1ccc(OC)cc21 (stereo not drawn) [Example 184, methyl 3-(hydroxymethyl)-6-methoxy-2,3,4,9-tetrahydro-1H-beta-carboline-1-carboxylate] |
| > 200 µM | CN1CCc2c(n(-c3ccccc3)c3ccccc23)C1=O [Example 257, 2-methyl-9-phenyl-2,3,4,9-tetrahydro-1H-beta-carbolin-1-one] |
| > 200 µM | COC(=O)C1c2c(c3cc(OC)ccc3n2CO)CCN1C (stereo not drawn) [Example 169, methyl 9-(hydroxymethyl)-6-methoxy-2-methyl-2,3,4,9-tetrahydro-1H-beta-carboline-1-carboxylate] |
| > 200 µM | COC(=O)c1ccc2[nH]c3c(c2c1)CCNC3=O [Example 270, methyl 1-oxo-2,3,4,9-tetrahydro-1H-beta-carboline-6-carboxylate] |
| 53.7 µM | O=C(O)C1c2c(c3ccccc3n2Cc2ccccc2)CCN1Cc1cccc(C(F)(F)F)c1 (stereo not drawn) [Example 112, 1H-Pyrido[3,4-b]indole-1-carboxylic acid, 2,3,4,9-tetrahydro-9-(phenylmethyl)-2-[[3-(trifluoromethyl)phenyl]methyl]- or 9-benzyl-2-[3-(trifluoromethyl)benzyl]-2,3,4,9-tetrahydro-1H-beta-carboline-1-carboxylic acid] |
| > 200 µM | COC(=O)C1c2[nH]c3ccc(OC)cc3c2CCN1C(C)=O (stereo not drawn) [Example 232, methyl 2-acetyl-6-methoxy-2,3,4,9-tetrahydro-1H-beta-carboline-1-carboxylate] |
| 48.6 µM | NNC(=O)c1ccc2[nH]c3c(c2c1)CCNC3C(=O)O (stereo not drawn) [Example 107, 6-(hydrazinocarbonyl)-2,3,4,9-tetrahydro-1H-beta-carboline-1-carboxylic acid] |
| 155 µM | COc1ccc2[nH]c3c(c2c1)CCNS3(=O)=O [Example 153, 6-methoxy-2,3,4,9-tetrahydro[1,2]thiazino[6,5-b]indole 1,1-dioxide] |

| SMILES | IC50 |
| --- | --- |
| COC(=O)C1c2[nH]c3ccc(O)cc3c2CCN1C (stereo not drawn) [Example 174, methyl 6-hydroxy-2-methyl-2,3,4,9-tetrahydro-1H-beta-carboline-1-carboxylate] | > 200 µM |
| COc1ccc2[nH]c3c(c2c1)CCNC3C(F)(F)F (stereo not drawn) [Example 224, 6-methoxy-1-(trifluoromethyl)-2,3,4,9-tetrahydro-1H-beta-carboline] | > 200 µM |
